Key:
[1] = target: T1, human FAAH (Fatty Acid Amide Hydrolase) (Homo sapiens, UniProt O00519); test: FAAH whole cell assay, CHO cells expressing human FAAH; type: cell-based
T1 construct: The full length FAAH was subcloned into the mammalian expression vector, pcDEF.neo
T1 sequence (O00519 1-579): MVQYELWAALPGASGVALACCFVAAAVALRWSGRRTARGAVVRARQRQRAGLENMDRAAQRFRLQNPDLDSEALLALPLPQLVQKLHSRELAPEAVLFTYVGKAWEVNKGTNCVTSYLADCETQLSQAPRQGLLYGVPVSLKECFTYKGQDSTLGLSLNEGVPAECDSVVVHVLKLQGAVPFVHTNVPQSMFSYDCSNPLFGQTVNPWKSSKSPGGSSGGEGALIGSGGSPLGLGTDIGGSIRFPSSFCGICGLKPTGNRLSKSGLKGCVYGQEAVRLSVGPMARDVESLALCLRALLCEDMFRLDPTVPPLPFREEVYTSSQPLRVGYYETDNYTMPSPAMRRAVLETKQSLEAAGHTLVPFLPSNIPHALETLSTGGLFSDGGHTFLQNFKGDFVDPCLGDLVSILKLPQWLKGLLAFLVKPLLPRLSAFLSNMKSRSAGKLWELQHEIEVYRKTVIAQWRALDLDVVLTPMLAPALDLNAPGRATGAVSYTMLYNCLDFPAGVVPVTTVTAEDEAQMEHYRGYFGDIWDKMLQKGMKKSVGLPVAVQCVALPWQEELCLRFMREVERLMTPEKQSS
Text: (§1) To assist in assay development stable cell lines for human, murine and rat full length FAAH were developed. Human FAAH cDNA (Accession No: NM_001441.1) was purchased from Origene (Rockville, Md.). The full length FAAH was subcloned into the mammalian expression vector, pcDEF.neo, using XbaI and EcoRI restriction sites and used for stable cell line generation.
(§2) Murine (accession number NM_010173) and Rat FAAH (accession number NM_024132) was amplified by reverse transcriptase polymerase chain reaction (RT-PCR) from brain cDNA (BD Biosciences, San Jose, Calif.) using primers 1 and 2 or primers 1 and 3 respectively (see Table). The resulting PCR product was ligated into pCR4 TOPO and DNA sequence confirmed. The full length murine FAAH was subcloned into the mammalian expression vector, pcDEFneo using either EcoRI (murine) or KpnI and EcoRI (rat) restriction sites. Chinese hamster ovary cells (CHO) were transfected following manufacturers protocol (AMAXA). Forty eight hours post transfection, cells were trypsinized and transferred to 96 well plates in Iscove's DMEM media supplemented with 2 mM Glutamine, 10% fetal calf serum, 1 mg/ml geneticin and HT Supplement (0.1 mM sodium hypoxanthine, 0.016 mM thymidine) in order to isolate single clones. Following selection in geneticin, individual clones were selected and FAAH activity was assessed using a whole cell fluorescent anandamide assay, modified from Ramarao et al (2005). Following removal of tissue culture media cells were dislodged following addition of Cellstripper (Mediatech, Inc. Manassas, Va.) and transferred to 96 well black clear bottom assay plate, centrifuged at 1,000 rpm for 3 mins and media removed and replaced with assay buffer (50 mM Iris pH8.0, 1 mM EDTA, 0.1% fatty acid free BSA). The reaction was initiated by addition of fluorescent substrate, AMC Arachidonoyl Amide (Cayman Chemical, Ann Arbor, Mich.) to 1 μM and reaction allowed to proceed for 2 hours at room temperature. Release of fluorescence was monitored in a CytoFluor Multiplate Reader. Cells expressing the highest amount of FAAH activity were selected for study with FAAH inhibitors.
(§3) (American Radiolabeled Chemicals; 1 mCi/ml) with FAAH (Life Sciences (1995), 56, 1999-2005 and Journal of Pharmacology and Experimented Therapeutics (1997), 283, 729-734), Analytical. Biochemistry (2003), 318, 270-5. In addition, routine assays were performed monitoring hydrolysis of arachidonyl-7-amino-4-methylcoumarin amide (AAMCA) by following increase in fluorescence upon release of 7-amino 4-methyl coumarin (λEX=355 nm, (λEM=460 nm). Analytical. Biochemistry (2005). 343, 143-51
(§4) Assays are performed on either cell lysate or microsome fractions prepared as described or in whole cell format employing either the fluorescent substrate AAMCA (Cayman chemical, Ann Arbor, Mich.,) or ^3H-anandmaide ([ETHANOLAMINE-1-3H]American Radiolabeled Chemicals; 1 mCi/ml). The cell lysate or microsome assay is performed in Costar black wall, clear bottom plates by adding FAAH_CF10 (whole cell, cell lysate or microsome) in assay buffer (50 mM Phosphate, pH 8.0, 1 mM EDTA, 200 mM KCl, 0.2% glycerol, 0.1% fatty acid free BSA) to each well, followed by either DMSO or compound and allowed to incubate at 22-25° C. for fifteen minutes. AAMCA substrate was used to achieve a final concentration of 1 μM and reaction allowed to proceed at room temperature for 1-3 hours. Fluorescent release as a measure of FAAH activity was monitored by reading the plate in a CytoFluor Multiplate Reader (Ex: […]). Whole cell assay is conducted with cells harvested after rinsing tissue culture flasks three times with Ca^++Mg^++ free PBS, incubating for 10 min in Enzyme free dissociation media and centrifuging for 5 minutes at 1,000 rpm in table top centrifuge. Cells are resuspended in assay buffer at desired cell number in (4×10^4 cells/assay in 96-well format; 1×10^4 cells/assay in 384-well format) and assayed as described.

[2] = target: T2, rat FAAH (Fatty Acid Amide Hydrolase) (Rattus norvegicus, UniProt P97612); test: FAAH whole cell assay, CHO cells expressing rat FAAH; type: cell-based
T2 sequence (P97612 1-579): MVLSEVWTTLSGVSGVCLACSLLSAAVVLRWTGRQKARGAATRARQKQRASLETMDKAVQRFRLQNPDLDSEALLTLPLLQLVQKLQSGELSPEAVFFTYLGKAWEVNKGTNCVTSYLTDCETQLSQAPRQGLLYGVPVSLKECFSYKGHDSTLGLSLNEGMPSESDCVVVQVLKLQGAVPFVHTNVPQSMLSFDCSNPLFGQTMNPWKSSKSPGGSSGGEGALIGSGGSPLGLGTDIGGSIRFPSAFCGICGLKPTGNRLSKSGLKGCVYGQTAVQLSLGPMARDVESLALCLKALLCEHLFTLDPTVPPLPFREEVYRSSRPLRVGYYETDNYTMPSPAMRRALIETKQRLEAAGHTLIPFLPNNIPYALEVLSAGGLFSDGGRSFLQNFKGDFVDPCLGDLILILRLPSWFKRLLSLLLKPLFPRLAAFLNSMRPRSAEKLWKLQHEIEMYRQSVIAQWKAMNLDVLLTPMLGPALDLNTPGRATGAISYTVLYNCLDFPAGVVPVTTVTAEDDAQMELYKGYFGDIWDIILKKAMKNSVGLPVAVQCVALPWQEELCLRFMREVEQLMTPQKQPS
Text: as §1, §2, §3, §4

[3] = target: T1, human FAAH (Fatty Acid Amide Hydrolase); test: FAAH enzyme assay on lysate of CHO cells expressing human FAAH; type: biochemical
Text: as §1
CHO cells expressing FAAH were used to prepare either crude cell lysate or microsome fractions. To harvest cells, tissue culture media was decanted, the monolayer washed three times with Ca^++Mg^++ free PBS and cells recovered after […] in enzyme free dissociation media (Millipore Corp, Billerica, Mass.). Cells were collected by centrifuging at 2000 rpm for 15 min. and the cell pellet re-suspended with 50 mM HEPES (pH 7.4) containing 1 mM EDTA and the protease inhibitors aprotinin (1 mg/ml) and leupeptin (100 μM). The suspension was sonicated at 4° C. and the cell lysate recovered after centrifuging at 12,000×g (14,600 rpm, SS34 rotor) for 20 min at 4° C. to form a crude pellet of cell debris, nuclei, peroxisomes, lysosomes, and mitochondria; the supernatant or cell lysate was used for FAAH enzyme assay. In some cases, microsomes fractions enriched in FAAH were prepared by centrifuging the cell lysate further at 27,000 rpm (100,000×g) in SW28 rotor for 50 minutes at 4° C. The pellet containing FAAH-enriched microsomes was re-suspend in 50 mM HEPES, (pH 7.4) 1 mM EDTA, and any remaining DNA sheared by passage of material through a 23 gauge needle and aliquots of enzyme were store at −80° C. prior to use.
as §3, §4
Alternatively, assays are performed using anandamide [ethanolamine 1-^3H] (specific activity of 10 Ci/mmol) diluted with cold anandamide to achieve a final assay concentration of 1 μM anandamide (˜50,000 cpm). Enzyme (CHO cell lysate, brain or liver homogenate) is incubated in assay buffer (50 mM Phosphate, pH 8.0, 1 mM EDTA, 200 mM KCl, 0.2% glycerol, 0.1% fatty acid free BSA) with inhibitor at 25° C. for 30 minutes. The reaction was terminated by addition of 2 volumes of chloroform:methanol (1:1) and mixed by vortexing. […]

| IC50 [1] | IC50 [2] | IC50 [3] | Compound |
| --- | --- | --- | --- |
| 30 nM | 14 nM | 10 nM | Fc1ccc(-c2nc(-c3ccc(-c4ncon4)nc3)c(Sc3ccc(Cl)cn3)o2)cc1 [Ex 71, 5-Chloro-2-({2-(4-fluorophenyl)-4-[6-(1,2,4-oxadiazol-3-yl)pyridin-3-yl]-1,3-oxazol-5-yl}sulfanyl)pyridine] |
| 37 nM | 34 nM | 8 nM | CC(C)(O)c1ncc(-c2nc(-c3ccc(F)cc3)oc2Sc2ccc(Cl)cn2)cn1 [Ex 74, 2-(5-{5-[(5-Chloropyridin-2-yl)sulfanyl]-2-(4-fluorophenyl)-1,3-oxazol-4-yl}pyrimidin-2-yl)propan-2-ol] |
| 69 nM | 39 nM | 28 nM | CS(=O)(=O)c1ccc(-c2nc(-c3ccc(F)cc3)oc2Sc2ccc(Cl)cn2)cc1 [Ex 78, 5-Chloro-2-({2-(4-fluorophenyl)-4-[4-(methylsulfonyl)phenyl]-1,3-oxazol-5-yl}sulfanyl)pyridine] |
| 67 nM | 25 nM | 35 nM | CC(C)(O)c1ccc(-c2nc(-c3ccc(F)cc3)oc2Sc2ccc(Cl)cn2)cc1 [Ex 80, 2-(4-{5-[(5-Chloropyridin-2-yl)sulfanyl]-2-(4-fluorophenyl)-1,3-oxazol-4-yl}phenyl)propan-2-ol] |
| 1000 nM | 247 nM | 46 nM | CC(C)(O)c1ccc(-c2nc(C3CC3)oc2Sc2ccc(Cl)cn2)cn1 [Ex 90, 2-(5-{5-[(5-Chloropyridin-2-yl)sulfanyl]-2-cyclopropyl-1,3-oxazol-4-yl}pyridin-2-yl)propan-2-ol] |
| 133 nM | 63 nM | 17 nM | CC(C)(O)c1ccc(-c2nc(-c3ccc(F)cc3)oc2Sc2ccc(Cl)cn2)nn1 [Ex 96, 2-(6-{5-[(5-Chloropyridin-2-yl)sulfanyl]-2-(4-fluorophenyl)-1,3-oxazol-4-yl}pyridazin-3-yl)propan-2-ol] |
| 222 nM | 35 nM | 44 nM | CC(C)(O)c1cc(-c2nc(-c3ccc(F)cc3)oc2Sc2ccc(Cl)cn2)on1 [Ex 98, 2-(5-{5-[(5-Chloropyridin-2-yl)sulfanyl]-2-(4-fluorophenyl)-1,3-oxazol-4-yl}isoxazol-3-yl)propan-2-ol] |
| 337 nM | 39 nM | 161 nM | CC(C)(O)c1csc(-c2nc(-c3ccc(F)cc3)oc2Sc2ccc(Cl)cn2)n1 [Ex 100, 2-(2-{5-[(5-Chloropyridin-2-yl)sulfanyl]-2-(4-fluorophenyl)-1,3-oxazol-4-yl}-1,3-thiazol-4-yl)propan-2-ol] |
| 35 nM | 17 nM | 12 nM | CS(=O)(=O)c1ccc(-c2nc(-c3ccc(F)cc3)oc2Sc2ccc(Cl)cn2)cn1 [Ex 102, 5-Chloro-2-({2-(4-fluorophenyl)-4-[6-(methylsulfonyl)pyridin-3-yl]-1,3-oxazol-5-yl}sulfanyl)pyridine] |
| 91 nM | 11 nM | 24 nM | CS(=O)(=O)c1ccc(-c2nc(-c3ccc(F)cc3)oc2Sc2ncc(Cl)cn2)cn1 [Ex 107, 5-Chloro-2-({2-(4-fluorophenyl)-4-[6-(methylsulfonyl)pyridin-3-yl]-1,3-oxazol-5-yl}sulfanyl)pyrimidine] |
| 64 nM | 24 nM | 11 nM | CCn1cc(-c2nc(-c3ccc(C(C)(C)O)nc3)c(Sc3ccc(Cl)cc3)o2)cn1 [Ex 111, 2-(5-{5-[(4-chlorophenyl)sulfanyl]-2-(1-ethyl-1H-pyrazol-4-yl)-1,3-oxazol-4-yl)pyridin-2-yl}propan-2-ol] |
| 47 nM | 20 nM | 28 nM | CC(C)(O)c1ccc(-c2nc(-c3cncc(Cl)c3)oc2Sc2ccc(Cl)cn2)cn1 [Ex 119, 2-(5-{2-(5-Chloropyridin-3-yl)-5-[(5-chloropyridin-2-yl)sulfanyl]-1,3-oxazol-4-yl}pyridin-2-yl)propan-2-ol] |

From patent publication US20110021531A1, “OXAZOLE DERIVATIVES USEFUL AS INHIBITORS OF FAAH” (priority 2009, published 2011)
